From ChEMBL document CHEMBL2424615, “Design, synthesis, and characterization of novel tetrahydropyran-based bacterial topoisomerase inhibitors with potent anti-gram-positive activity” (J Med Chem, 2013)

Key:
[1] = system: Pseudomonas aeruginosa; assay: Antibacterial activity against wild type Pseudomonas aeruginosa ATCC 27853 assessed as growth inhibition by broth microdilution method; assay type: functional
[2] = target: hERG (KCNH2) (Homo sapiens, UniProt Q12809); assay: Inhibition of human ERG expressed in CHO cells at 10 uM after 3 mins by patch clamp assay relative to control; assay type: cell-based; conditions: CHO cells that express human ERG
[3] = target: DNA gyrase (Staphylococcus aureus, UniProt P0A0K8+P20831); assay: Inhibition of wild type Staphylococcus aureus DNA gyrase subunit 2GyrA/2GyrB assessed as pBR322 supercoiling after 1 hr; assay type: protein-complex assay
[4] = target: Topoisomerase IV (Staphylococcus aureus, UniProt P0C1S7+P0C1U9); assay: Inhibition of wild type Staphylococcus aureus ATCC 29213 topoisomerase-4 subunit 2GrlA/2GrlB assessed as pBR322 relaxation after 1 hr; assay type: protein-complex assay
[5] = Inhibition of wild type Escherichia coli ATCC 25922 DNA gyrase subunit 2GyrA/2GyrB assessed as pBR322 supercoiling after 1 hr
[6] = system: Staphylococcus aureus; assay: Antibacterial activity against wild type Staphylococcus aureus ATCC 29213 assessed as growth inhibition by broth microdilution method; assay type: functional
[7] = system: Staphylococcus aureus; assay: Antibacterial activity against NXL-101-resistant Staphylococcus aureus A-234 harboring DNA gyrase subunit A D83N mutant assessed as growth inhibition by broth microdilution method; assay type: functional
[8] = Inhibition of wild type Escherichia coli ATCC 25922 DNA topoisomerase-4 subunit 2ParC/2ParE assessed as pBR322 relaxation after 1 hr
[9] = system: Streptococcus pneumoniae; assay: Antibacterial activity against wild type Streptococcus pneumoniae ATCC 49619 assessed as growth inhibition by broth microdilution method; assay type: functional
[10] = system: Escherichia coli; assay: Antibacterial activity against wild type Escherichia coli ATCC 25922 assessed as growth inhibition by broth microdilution method; assay type: functional

SMILES | MIC [1] [µg/mL] | inhibition at 0.05 h, 10 µM [2] [%] | IC50 [3] [nM] | IC50 [4] [nM] | IC50 [5] [nM] | MIC [6] [µg/mL] | MIC [7] [µg/mL] | IC50 [8] [nM] | MIC [9] [µg/mL] | MIC [10] [µg/mL]
COc1ccc2ncc(F)c([C@@H](O)[C@H](O)[C@@H]3CC[C@@H](NCc4ccc5c(n4)NC(=O)CS5)CO3)c2c1 | > 8 | 15 | 125 | 8000 | 2000 | 0.25 | > 8 | 125 | 0.25 | 4
COc1cc(F)c2nccc([C@@H](O)[C@H](O)[C@@H]3CC[C@@H](NCc4ccc5c(n4)NC(=O)CS5)CO3)c2c1 | > 8 | 20 | 125 | 8000 | 2000 | 0.03 | 4 | 125 | 0.25 | 4
COc1ccc2nccc([C@@H](O)[C@H](O)[C@@H]3CC[C@@H](NCc4ccc5c(n4)NC(=O)CS5)CO3)c2c1 | > 8 | 24 | 250 | 8000 | 2000 | 0.25 | > 8 | 125 | 0.25 | 4
COc1cnc2ccc(F)c([C@@H](O)[C@H](O)[C@@H]3CC[C@@H](NCc4cc5c(cn4)OCCO5)CO3)c2n1 | > 8 | 11 | 125 | 8000 | 8000 | ≤ 0.015 | 8 | 500 | 0.125 | 8
COc1cnc2ccc(F)c([C@@H](O)[C@H](O)[C@@H]3CC[C@@H](NCc4cc5c(cn4)OCCS5)CO3)c2n1 | > 8 | 33 | 30 | 8000 | 8000 | ≤ 0.015 | 2 | 125 | 0.03 | 8
COc1cnc2ccc(F)c([C@@H](O)[C@H](O)[C@@H]3CC[C@@H](NCc4cc5c(nn4)OCCS5)CO3)c2n1 | > 8 | 0 | 125 | > 8000 | 8000 | ≤ 0.015 | 8 | 2000 | 0.125 | > 8
COc1ccc2ncc(F)c([C@@H](O)[C@H](O)[C@@H]3CC[C@@H](NCc4cc5c(cn4)OCCO5)CO3)c2n1 | > 8 | 10 | 30 | 8000 | 8000 | 0.03 | 2 | 125 | 0.03 | > 8
COc1ccc2ncc(F)c([C@@H](O)[C@H](O)[C@@H]3CC[C@@H](NCc4cc5c(nn4)OCCS5)CO3)c2n1 | > 8 | 3 | 125 | 8000 | 8000 | ≤ 0.015 | 8 | 500 | 0.06 | > 8
COc1ccc2ncc(F)c([C@@H](O)[C@H](O)[C@@H]3CC[C@@H](NCc4cc5c(nn4)OCCO5)CO3)c2n1 | > 8 | 7 | 125 | > 8000 | > 8000 | 0.125 | > 8 | 2000 | 0.5 | > 8
COc1ccc2nccc(/C=C/[C@@H]3CC[C@@H](NCc4ccc5c(n4)NC(=O)CS5)CO3)c2n1 | > 8 | 94 | 125 | 2000 | 500 | 0.125 | 4 | 30 | 1 | 4
COc1ccc2nccc(/C=C/[C@@H]3CC[C@@H](NCc4cc5c(cn4)OCCO5)CO3)c2n1 | > 8 | 88 | 125 | > 8000 | > 8000 | 0.25 | > 8 |  | 1 | > 8
COc1ccc2nccc(CC[C@@H]3CC[C@@H](NCc4cc5c(cn4)OCCO5)CO3)c2n1 | > 8 | 82 | < 30 | > 8000 | 8000 | 0.06 | 4 | 125 | 0.5 | 8
COc1ccc2nccc([C@@H](O)[C@H](O)[C@@H]3CC[C@@H](NCc4ccc5c(n4)NC(=O)CS5)CO3)c2n1 | > 8 | 36 | < 30 | 500 | 500 | 0.03 | 0.5 | 125 | 0.06 | 1
COc1ccc2nccc([C@@H](O)[C@H](O)[C@@H]3CC[C@@H](NCc4cc5c(cn4)OCCO5)CO3)c2n1 | > 8 | 27 | 30 | 8000 | 8000 | 0.06 | 4 | 125 | 0.5 | 8
COc1ccc2nccc([C@@H](O)[C@H](O)[C@H]3CC[C@H](NCc4ccc5c(n4)NC(=O)CS5)CO3)c2n1 | > 8 | 45 | 125 | > 8000 | 8000 | 0.5 | > 8 | 125 | 0.5 | 4
COc1ccc2nccc([C@H](O)[C@@H](O)[C@@H]3CC[C@@H](NCc4ccc5c(n4)NC(=O)CS5)CO3)c2n1 | > 8 | 93 | 500 | > 8000 | 8000 | 1 | > 8 | 125 | 1 | > 8
COc1ccc2nccc([C@H](O)[C@@H](O)[C@H]3CC[C@H](NCc4ccc5c(n4)NC(=O)CS5)CO3)c2n1 | > 8 | 70 | 30 | 8000 | 500 | 0.03 | 0.5 | 125 | 0.03 | 1
COc1ccc2cccc([C@@H](O)[C@H](O)[C@@H]3CC[C@@H](NCc4ccc5c(n4)NC(=O)CS5)CO3)c2n1 | > 8 | 72 | 30 | 500 | 125 | 0.03 | 0.25 | 125 | 0.06 | 2
COc1cnc2cccc([C@@H](O)[C@H](O)[C@@H]3CC[C@@H](NCc4ccc5c(n4)NC(=O)CS5)CO3)c2c1 | > 8 | 17 | 125 | 500 | 2000 | 0.25 | > 8 | 125 | 0.25 | 8
COc1cnc2ccc(F)c([C@@H](O)[C@H](O)[C@@H]3CC[C@@H](NCc4ccc5c(n4)NC(=O)CS5)CO3)c2n1 | > 8 | 44 | 30 | 2000 | 500 | 0.06 | 1 | 125 | 0.5 | 4
COc1ccc2nccc(OC[C@@H]3CC[C@@H](NCc4ccc5c(n4)NC(=O)CS5)CO3)c2n1 | > 8 | 70 | 125 | 8000 | 2000 | 0.5 | 4 |  | 0.25 | 4
COc1ccc2nccc(OC[C@@H]3CC[C@@H](NCc4cc5c(cn4)OCCO5)CO3)c2n1 | > 8 | 19 | 500 | > 8000 | > 8000 | 2 | > 8 |  | 4 | > 8
COc1ccc2nccc(NC(=O)[C@@H]3CC[C@@H](NCc4ccc5c(n4)NC(=O)CS5)CO3)c2n1 | > 8 | 99 | 125 | 2000 | 500 | 0.25 | > 8 |  | 0.5 | > 8
COc1ccc2nccc(NC(=O)[C@@H]3CC[C@@H](NCc4cc5c(cn4)OCCO5)CO3)c2n1 | > 8 | 71 | 125 | > 8000 | > 8000 | 0.125 | > 8 |  | 0.25 | > 8
COc1ccc2nccc(C(O)C[C@@H]3CC[C@@H](NCc4cc5c(cn4)OCCO5)CO3)c2n1 (mixture of isomers) | > 8 | 66 | 125 | > 8000 | > 8000 | 0.03 | > 8 |  | 0.125 | > 8
